Where “and” joins values, the source holds several entries; their conditions need not be identical. Equal entries are not always repeated. Entries after “also recorded” stand apart in the source; their conditions may differ.
Assays:
rats = assay: Delayed-type hypersensitivity (DTH) response in DNFB-sensitized rats, ear thickness; format: in vivo, rat; details: single dose of 10 micrograms, 24 hours
From the text: In order to perform this kind of experiment we set up a protocol to study DTH response in rats. The system used is basically that described by Phanuphak et al., 1974. In brief, two groups of rats (3 or 5 animals each) were sensitized by applications of 40 microliters of 0.7% DNFB in 4:1 proportion of acetone: olive oil solution, in two consecutive days (days one and two), after gentle shaving of the dorsal-back region of the animals. After 7 days of the second application of the sensitizing solution, the animals were challenged by a single application of 20 microliter of 0.4% DNFB dissolved in the acetone: olive oil solution described above. This solution was spread over the dorsal surface of the right-side ears and allowed to dry, whereas the left-side ears were spread with only the vehicle solution (acetone:olive oil). On day eight of the protocol, a subcutaneous injection of 100 microliter of phosphate saline buffer pH 7.8 (PBS) was applied to each one of the animals used as control, whereas to the experimental group of rats, an amount of 10 micrograms pure Vm24 in 100 microliters PBS was subcutaneously applied. The thickness of both ears of all animals was measured 24 hours after of the application of Vm24.

hERG channel = hERG channel (Homo sapiens, UniProt Q12809); assay: Patch-clamp block of hERG channels stably expressed in HEK-293 cells; details: 10 nM
hBK (KCa1.1) = hBK (KCa1.1) (Homo sapiens, UniProt Q12791); assay: Patch-clamp block of hBK (KCa1.1) channels expressed in tsA-201 cells; details: 10 nM
mice = assay: In vivo toxicity / lethality test by injection into mice; details: injected
hKv1.4 = hKv1.4 (Homo sapiens, UniProt P22459); assay: Patch-clamp block of fast inactivation-removed hKv1.4 (Kv1.4ΔN) channels in Cos-7 cells; details: 10 nM
hKv1.4, sequence (P22459 148-653): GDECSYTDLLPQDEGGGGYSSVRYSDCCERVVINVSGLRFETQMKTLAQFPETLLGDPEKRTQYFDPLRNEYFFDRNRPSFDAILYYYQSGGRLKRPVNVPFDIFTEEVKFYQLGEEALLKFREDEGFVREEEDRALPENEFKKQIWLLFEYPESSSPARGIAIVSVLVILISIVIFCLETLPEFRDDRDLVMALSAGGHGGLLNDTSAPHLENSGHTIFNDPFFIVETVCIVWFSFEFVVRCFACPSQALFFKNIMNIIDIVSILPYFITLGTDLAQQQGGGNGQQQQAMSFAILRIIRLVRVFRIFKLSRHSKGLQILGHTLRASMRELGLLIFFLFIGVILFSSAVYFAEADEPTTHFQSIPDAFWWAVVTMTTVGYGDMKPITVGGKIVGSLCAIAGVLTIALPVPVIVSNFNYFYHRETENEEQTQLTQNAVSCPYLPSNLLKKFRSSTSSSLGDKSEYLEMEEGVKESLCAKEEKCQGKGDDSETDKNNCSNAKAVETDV

hKv1.2 = hKv1.2 (Homo sapiens, UniProt P16389); assay: Patch-clamp block of hKv1.2 channels expressed in Cos-7 cells; details: for remaining current fraction (RCF) hKv1.2: n=3
hKv1.2, sequence (P16389 whole entry): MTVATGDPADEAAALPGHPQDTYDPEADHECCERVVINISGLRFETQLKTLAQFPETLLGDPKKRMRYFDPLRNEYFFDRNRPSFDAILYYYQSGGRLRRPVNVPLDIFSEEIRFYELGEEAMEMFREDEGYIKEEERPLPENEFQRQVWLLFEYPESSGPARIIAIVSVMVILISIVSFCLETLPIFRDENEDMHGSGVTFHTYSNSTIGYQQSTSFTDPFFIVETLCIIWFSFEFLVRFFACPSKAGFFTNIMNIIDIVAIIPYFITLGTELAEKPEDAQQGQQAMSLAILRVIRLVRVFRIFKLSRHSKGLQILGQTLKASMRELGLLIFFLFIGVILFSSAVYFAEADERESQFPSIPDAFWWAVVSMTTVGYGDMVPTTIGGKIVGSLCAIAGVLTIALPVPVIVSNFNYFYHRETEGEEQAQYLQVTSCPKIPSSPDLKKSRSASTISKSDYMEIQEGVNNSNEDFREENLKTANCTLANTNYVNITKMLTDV

hNaV1.5 = hNaV1.5 (Homo sapiens, UniProt Q14524); assay: Patch-clamp block of cardiac voltage-gated Na+ channel NaV1.5 expressed in Cos-7 cells; details: 10 nM
hNaV1.5, sequence (Q14524 whole entry): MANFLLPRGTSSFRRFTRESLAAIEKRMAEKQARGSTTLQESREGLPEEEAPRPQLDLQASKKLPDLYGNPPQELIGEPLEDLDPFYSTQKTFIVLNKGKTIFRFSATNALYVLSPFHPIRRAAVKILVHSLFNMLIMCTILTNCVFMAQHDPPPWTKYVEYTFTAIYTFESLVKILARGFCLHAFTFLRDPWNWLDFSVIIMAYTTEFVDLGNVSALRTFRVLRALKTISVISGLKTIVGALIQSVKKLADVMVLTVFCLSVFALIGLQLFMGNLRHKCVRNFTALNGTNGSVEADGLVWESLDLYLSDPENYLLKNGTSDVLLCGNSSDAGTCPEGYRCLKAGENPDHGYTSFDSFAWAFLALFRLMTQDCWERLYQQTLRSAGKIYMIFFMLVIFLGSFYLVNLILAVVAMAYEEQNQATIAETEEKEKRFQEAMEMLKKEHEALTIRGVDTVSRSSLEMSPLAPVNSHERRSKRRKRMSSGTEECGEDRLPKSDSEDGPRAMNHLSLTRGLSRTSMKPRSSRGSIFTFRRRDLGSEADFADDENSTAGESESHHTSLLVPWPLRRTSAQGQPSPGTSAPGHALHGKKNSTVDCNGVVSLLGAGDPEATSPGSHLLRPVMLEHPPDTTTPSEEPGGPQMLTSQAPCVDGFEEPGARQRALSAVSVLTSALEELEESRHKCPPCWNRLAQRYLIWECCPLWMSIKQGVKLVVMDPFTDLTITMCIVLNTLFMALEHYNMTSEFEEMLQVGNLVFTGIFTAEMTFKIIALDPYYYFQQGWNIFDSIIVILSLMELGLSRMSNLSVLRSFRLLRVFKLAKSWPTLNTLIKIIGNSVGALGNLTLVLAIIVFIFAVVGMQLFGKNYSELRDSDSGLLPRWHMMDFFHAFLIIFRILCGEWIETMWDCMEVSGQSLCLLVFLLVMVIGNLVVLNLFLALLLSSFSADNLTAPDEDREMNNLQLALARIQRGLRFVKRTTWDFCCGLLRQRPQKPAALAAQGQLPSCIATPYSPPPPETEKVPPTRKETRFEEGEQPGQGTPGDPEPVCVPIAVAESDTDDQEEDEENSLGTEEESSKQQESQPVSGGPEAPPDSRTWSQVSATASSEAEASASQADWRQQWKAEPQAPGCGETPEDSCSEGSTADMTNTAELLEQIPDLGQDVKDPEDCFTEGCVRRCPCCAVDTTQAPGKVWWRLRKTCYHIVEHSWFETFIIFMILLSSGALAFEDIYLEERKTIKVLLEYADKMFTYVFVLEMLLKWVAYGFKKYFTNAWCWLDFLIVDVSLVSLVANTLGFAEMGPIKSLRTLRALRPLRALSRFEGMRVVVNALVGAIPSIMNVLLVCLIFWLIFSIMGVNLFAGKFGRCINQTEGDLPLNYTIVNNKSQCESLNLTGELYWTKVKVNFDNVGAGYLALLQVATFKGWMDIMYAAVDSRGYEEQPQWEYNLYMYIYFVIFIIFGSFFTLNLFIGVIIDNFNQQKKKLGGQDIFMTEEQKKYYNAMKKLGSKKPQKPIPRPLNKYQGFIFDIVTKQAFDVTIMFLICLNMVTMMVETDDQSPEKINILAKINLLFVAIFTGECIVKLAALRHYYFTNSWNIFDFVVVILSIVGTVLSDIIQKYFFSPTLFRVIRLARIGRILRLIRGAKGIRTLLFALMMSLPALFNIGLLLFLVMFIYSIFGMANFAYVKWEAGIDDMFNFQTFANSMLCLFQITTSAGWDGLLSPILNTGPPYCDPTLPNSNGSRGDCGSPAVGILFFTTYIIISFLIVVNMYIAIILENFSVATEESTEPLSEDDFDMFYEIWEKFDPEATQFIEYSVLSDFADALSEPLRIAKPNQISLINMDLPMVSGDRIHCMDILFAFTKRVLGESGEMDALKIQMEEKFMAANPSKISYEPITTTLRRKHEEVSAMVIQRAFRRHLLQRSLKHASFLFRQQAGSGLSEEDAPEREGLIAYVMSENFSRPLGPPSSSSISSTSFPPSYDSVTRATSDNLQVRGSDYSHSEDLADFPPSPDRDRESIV

hIKCa1 = hIKCa1 (Homo sapiens, UniProt O15554); assay: Patch-clamp block of recombinant hIKCa1 channels expressed in Cos-7 cells (voltage ramps)
hIKCa1, sequence (O15554 whole entry): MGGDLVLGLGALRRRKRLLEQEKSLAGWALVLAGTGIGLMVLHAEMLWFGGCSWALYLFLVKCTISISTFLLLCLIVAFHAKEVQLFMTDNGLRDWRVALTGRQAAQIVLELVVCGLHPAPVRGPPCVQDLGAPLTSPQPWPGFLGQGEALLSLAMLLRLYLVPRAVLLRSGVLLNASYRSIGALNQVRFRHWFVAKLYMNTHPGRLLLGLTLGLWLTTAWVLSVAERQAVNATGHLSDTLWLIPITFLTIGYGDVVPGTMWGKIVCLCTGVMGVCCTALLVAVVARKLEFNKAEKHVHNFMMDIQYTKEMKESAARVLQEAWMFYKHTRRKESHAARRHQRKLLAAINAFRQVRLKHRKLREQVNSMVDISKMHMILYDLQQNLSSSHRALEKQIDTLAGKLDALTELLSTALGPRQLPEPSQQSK

mKv1.1 = mKv1.1 (Mus musculus, UniProt P16388); assay: Patch-clamp block of mKv1.1 channels stably expressed in L929 cells; details: for remaining current fraction (RCF) mKv1.1: n=3
mKv1.1, sequence (P16388 whole entry): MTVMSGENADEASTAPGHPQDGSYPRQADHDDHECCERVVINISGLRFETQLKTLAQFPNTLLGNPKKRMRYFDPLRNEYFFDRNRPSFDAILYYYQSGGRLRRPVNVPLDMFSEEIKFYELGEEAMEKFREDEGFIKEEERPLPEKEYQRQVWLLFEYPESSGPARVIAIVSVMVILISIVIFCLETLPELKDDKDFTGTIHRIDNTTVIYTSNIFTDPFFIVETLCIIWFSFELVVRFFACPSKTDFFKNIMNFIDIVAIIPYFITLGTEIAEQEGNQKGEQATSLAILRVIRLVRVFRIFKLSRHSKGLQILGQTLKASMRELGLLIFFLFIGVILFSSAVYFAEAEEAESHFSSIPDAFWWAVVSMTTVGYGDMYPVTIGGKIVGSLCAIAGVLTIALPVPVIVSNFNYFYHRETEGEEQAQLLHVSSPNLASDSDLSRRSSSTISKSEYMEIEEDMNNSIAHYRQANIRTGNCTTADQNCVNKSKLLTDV

rKv2.1 = target: T1, rKv2.1 (Rattus norvegicus, UniProt P15387); assay: Patch-clamp block of rKv2.1 channels expressed in Cos-7 cells; details: 10 nM
T1 sequence (P15387 1-857): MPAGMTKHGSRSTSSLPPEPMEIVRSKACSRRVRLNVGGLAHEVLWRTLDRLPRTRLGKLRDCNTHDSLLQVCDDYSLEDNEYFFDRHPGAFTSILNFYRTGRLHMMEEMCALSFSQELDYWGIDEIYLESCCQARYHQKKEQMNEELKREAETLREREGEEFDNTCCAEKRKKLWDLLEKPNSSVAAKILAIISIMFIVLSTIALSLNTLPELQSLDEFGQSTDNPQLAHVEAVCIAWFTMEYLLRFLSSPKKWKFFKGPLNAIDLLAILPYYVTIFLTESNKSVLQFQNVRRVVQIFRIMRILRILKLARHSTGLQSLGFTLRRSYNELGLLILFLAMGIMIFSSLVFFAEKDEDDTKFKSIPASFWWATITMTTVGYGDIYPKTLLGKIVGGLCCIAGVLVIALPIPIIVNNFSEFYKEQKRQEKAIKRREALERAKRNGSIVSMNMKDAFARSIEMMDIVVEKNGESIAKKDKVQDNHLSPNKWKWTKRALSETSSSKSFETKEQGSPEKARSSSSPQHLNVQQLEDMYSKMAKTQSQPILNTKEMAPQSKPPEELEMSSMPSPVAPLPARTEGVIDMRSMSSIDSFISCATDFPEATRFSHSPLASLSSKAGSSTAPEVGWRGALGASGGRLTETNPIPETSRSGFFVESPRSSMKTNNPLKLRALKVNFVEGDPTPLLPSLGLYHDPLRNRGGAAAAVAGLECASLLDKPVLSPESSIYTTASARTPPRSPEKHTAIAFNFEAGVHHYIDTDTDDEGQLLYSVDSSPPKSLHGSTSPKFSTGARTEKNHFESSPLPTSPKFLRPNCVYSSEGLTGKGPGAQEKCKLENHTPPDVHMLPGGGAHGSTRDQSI

hKv1.5 = hKv1.5 (Homo sapiens, UniProt P22460); assay: Patch-clamp block of hKv1.5 channels stably expressed in MEL cells; details: 10 nM
hKv1.3 channels = hKv1.3 channels (Homo sapiens, UniProt P22001); assay: Whole-cell patch-clamp block of hKv1.3 channels endogenously expressed in human peripheral blood T cells; format: cell-based; set-up: channels expressed endogenously in human peripheral blood T cells; endogenous in cells; host or cells: human peripheral blood T lymphocytes from healthy volunteers, PHA-stimulated
hKv1.3 channels, sequence (P22001 whole entry): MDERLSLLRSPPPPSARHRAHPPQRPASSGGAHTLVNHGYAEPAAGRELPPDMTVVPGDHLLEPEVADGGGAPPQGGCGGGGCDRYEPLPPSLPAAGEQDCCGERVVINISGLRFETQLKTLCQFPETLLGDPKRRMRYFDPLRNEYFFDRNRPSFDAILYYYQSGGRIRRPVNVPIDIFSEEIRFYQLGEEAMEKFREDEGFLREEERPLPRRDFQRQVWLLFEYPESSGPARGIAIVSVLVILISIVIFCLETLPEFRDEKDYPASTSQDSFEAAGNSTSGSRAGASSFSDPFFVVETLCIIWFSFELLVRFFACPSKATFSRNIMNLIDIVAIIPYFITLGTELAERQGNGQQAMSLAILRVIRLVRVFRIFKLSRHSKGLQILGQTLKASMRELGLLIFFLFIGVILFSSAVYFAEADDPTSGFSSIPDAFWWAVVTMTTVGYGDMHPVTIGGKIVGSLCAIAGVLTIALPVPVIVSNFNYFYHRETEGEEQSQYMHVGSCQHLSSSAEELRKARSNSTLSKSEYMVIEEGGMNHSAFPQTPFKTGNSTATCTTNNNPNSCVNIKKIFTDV

Q: How did the “inflammation of the ear (thickness, unchallenged ear subtracted)” value (rats) turn out when `CC[C@H](C)[C@H](NC(=O)[C@H](C)NC(=O)[C@H](C)NC(=O)[C@H](C)N)C(=O)N[C@@H](CO)C(=O)N[C@H]1CSSC[C@@H]2NC(=O)[C@H](CCCCN)NC(=O)CNC(=O)[C@H](CC(N)=O)NC(=O)[C@H](CCCCN)NC(=O)[C@@H]3CSSC[C@@H](C(N)=O)NC(=O)[C@H](Cc4ccc(O)cc4)NC(=O)[C@H](Cc4ccc(O)cc4)NC(=O)[C@@H]4CSSC[C@H](NC(=O)[C@H](CCCCN)NC(=O)[C@@H]5CCCN5C(=O)[C@@H]5CCCN5C(=O)[C@H](CSSC[C@H](NC(=O)[C@H](CCCCN)NC(=O)[C@H](CCCNC(=N)N)NC(=O)[C@H](CC(N)=O)NC(=O)[C@H](CCSC)NC2=O)C(=O)N[C@@H](CCCCN)C(=O)N4)NC(=O)[C@H](CCC(=O)O)NC(=O)[C@@H]2CCCN2C(=O)[C@H](CO)NC(=O)CNC(=O)[C@H](C(C)C)NC1=O)C(=O)N[C@@H](CCCNC(=N)N)C(=O)N[C@@H](C)C(=O)N[C@@H](CCC(N)=O)C(=O)NCC(=O)N3` [Vm24] was run?
A: Its value is “no more than 0.10 mm”.

Q: What about the “effect on hERG current” value (hERG channel) of the same compound?
A: The value was “lack of blockade; also recorded: does not modify”.

Q: And the “effect on hBK current” value (hBK (KCa1.1))?
A: Its value is “lack of blockade; also recorded: does not modify”.

Q: What about the “toxicity / symptoms of intoxication in mice” value (mice; up to 200 microgram per mouse of 20 grams (10,000 microgram/kilogram)) of the same compound?
A: The value was “not toxic; also recorded: no observable symptoms of intoxication”.

Q: And the “toxicity in experimental animals” value (mice; up to 10,000 microgram per 20 gram mouse weight (so in the source))?
A: The value was “not toxic”.

Q: What about the “effect on hKv1.4 current” value (hKv1.4) of the same compound?
A: The value was “practically insensitive; also recorded: does not modify”.

Q: And the Kd (hKv1.2)?
A: Its Kd is 5 to 10 nM.

Q: And the “selectivity for hKv1.3 over hKv1.2” value (hKv1.2)?
A: The value was no less than 1500 fold.

Q: And the “remaining current fraction (RCF) hKv1.2” value (hKv1.2; 1 nM)?
A: Its value is 0.81±0.015.

Q: What about the “time for equilibrium block of hKv1.2 to develop” value (hKv1.2; 10 nM) of the same compound?
A: Its value is 5.5 min.

Q: What about the “remaining current fraction (RCF) hKv1.2” value (hKv1.2; 10 nM) of the same compound?
A: The value was 0.54±0.08.

Q: What about the “reversibility of hKv1.2 block” value (hKv1.2; after 10 nM, wash-out) of the same compound?
A: The value was “not fully reversible”.

Q: What about the “effect on NaV1.5 current” value (hNaV1.5) of the same compound?
A: The value was “lack of blockade; also recorded: does not modify”.

Q: What about the Kd (hIKCa1) of the same compound?
A: Its Kd is roughly 14 nM.

Q: What about the “selectivity for hKv1.3 over hIKCa1” value (hIKCa1) of the same compound?
A: The value was no less than 4500 fold.

Q: What about the “block of hIKCa1” value (hIKCa1; 1 nM) of the same compound?
A: Its value is “practically does not blocks”.

Q: And the “time to reach equilibrium block of hIKCa1” value (hIKCa1; 10 nM)?
A: The value was 4.5 min.

Q: And the inhibition at 0.01 µM (hIKCa1; COS-7, read-out: current inhibition hIKCa1, 10 nM)?
A: Its inhibition at 0.01 µM is roughly 40%.

Q: What about the remaining activity at 0.01 µM (hIKCa1; COS-7, read-out: slope s of current-voltage relationship, % of control) of the same compound?
A: The remaining activity at 0.01 µM was roughly 52%.

Q: What about the “reversal of hIKCa1 block on wash-out” value (hIKCa1; after 10 nM, in 2.5 min toxin-free solution) of the same compound?
A: The value was “fully reversed”.

Q: And the Kd (mKv1.1)?
A: The Kd was 30 to 40 nM.

Q: And the “selectivity for hKv1.3 over mKv1.1” value (mKv1.1)?
A: Its value is no less than 10000 fold.

Q: What about the “remaining current fraction (RCF) mKv1.1” value (mKv1.1; 1 nM) of the same compound?
A: The value was 0.97±0.02.

Q: What about the “time for equilibrium block of mKv1.1 to develop” value (mKv1.1; 10 nM) of the same compound?
A: Its value is 6 min.

Q: And the “remaining current fraction (RCF) mKv1.1” value (mKv1.1; 10 nM)?
A: The value was 0.80±0.02.

Q: And the inhibition at 0.01 µM (mKv1.1; L929, read-out: current inhibition mKv1.1)?
A: The inhibition at 0.01 µM was 20 to 50%.

Q: And the “effect on rKv2.1 current” value (rKv2.1)?
A: The value was “lack of blockade; also recorded: does not modify”.

Q: And the “effect on hKv1.5 current” value (hKv1.5)?
A: The value was “practically insensitive; also recorded: does not modify”.

Q: What about the “block of hKv1.3 current” value (hKv1.3 channels; 3 pM) of the same compound?
A: The value was “over 50%”.

Q: What about the “level at which loss of current saturates, % of the peak recorded in control solution” value (hKv1.3 channels; 3 pM, 10.5-minute application) of the same compound?
A: The value was roughly 36%.

Q: What about the “block of hKv1.3 current (words)” value (hKv1.3 channels; 0.3 nM) of the same compound?
A: The value was “full block”.

Q: And the “block of hKv1.3 current (words)” value (hKv1.3 channels; 1 nM)?
A: The value was “completely disappeared; also recorded: full block; also recorded: blocks hKv1.3 channels completely; also recorded: almost completely blocked”.

Q: And the “blockage of hKv1.3 current” value (hKv1.3 channels; 10 nM)?
A: Its value is 100%.

Q: What about the “time for equilibrium block of hKv1.3 to develop” value (hKv1.3 channels; 10 nM) of the same compound?
A: Its value is 3.5 min.

Q: And the “remaining current fraction (RCF) hKv1.3” value (hKv1.3 channels; 10 nM, mean±SEM, n=3)?
A: The value was 0.01±0.01.

Q: And the “fraction of blocked hKv1.3 current recovered” value (hKv1.3 channels; 30 minute washout after 3 pM)?
A: The value was “one third”.

Q: What about the Hill coefficient n (hKv1.3 channels; dose-response fit, hKv1.3) of the same compound?
A: The Hill coefficient n was roughly 1.

Q: What about the Kd (hKv1.3 channels; fit of dose-response of remaining current fraction, human T cells, stated to be an overestimate of the real Kd, read-out: Kd (dissociation constant) for hKv1.3) of the same compound?
A: Its Kd is 0.0029 nM and < 0.003 nM.

Q: What about the off rate (hKv1.3 channels; from wash-out time constant after 3 pM) of the same compound?
A: The off rate was roughly 0.00026 s⁻¹.
